{"source": "paper PMC12881674", "about": "“Activation of TRPV3 channels in bladder cancer cells stimulates ATP release” (Molecular Pharmacology, 2025)", "key": {"human TRPM8": {"target": "T1, human TRPM8 (Homo sapiens, UniProt Q7Z2W7)", "T1 construct": "expressed in transfected cells; host or cells: HEK293", "T1 sequence (Q7Z2W7 whole entry)": "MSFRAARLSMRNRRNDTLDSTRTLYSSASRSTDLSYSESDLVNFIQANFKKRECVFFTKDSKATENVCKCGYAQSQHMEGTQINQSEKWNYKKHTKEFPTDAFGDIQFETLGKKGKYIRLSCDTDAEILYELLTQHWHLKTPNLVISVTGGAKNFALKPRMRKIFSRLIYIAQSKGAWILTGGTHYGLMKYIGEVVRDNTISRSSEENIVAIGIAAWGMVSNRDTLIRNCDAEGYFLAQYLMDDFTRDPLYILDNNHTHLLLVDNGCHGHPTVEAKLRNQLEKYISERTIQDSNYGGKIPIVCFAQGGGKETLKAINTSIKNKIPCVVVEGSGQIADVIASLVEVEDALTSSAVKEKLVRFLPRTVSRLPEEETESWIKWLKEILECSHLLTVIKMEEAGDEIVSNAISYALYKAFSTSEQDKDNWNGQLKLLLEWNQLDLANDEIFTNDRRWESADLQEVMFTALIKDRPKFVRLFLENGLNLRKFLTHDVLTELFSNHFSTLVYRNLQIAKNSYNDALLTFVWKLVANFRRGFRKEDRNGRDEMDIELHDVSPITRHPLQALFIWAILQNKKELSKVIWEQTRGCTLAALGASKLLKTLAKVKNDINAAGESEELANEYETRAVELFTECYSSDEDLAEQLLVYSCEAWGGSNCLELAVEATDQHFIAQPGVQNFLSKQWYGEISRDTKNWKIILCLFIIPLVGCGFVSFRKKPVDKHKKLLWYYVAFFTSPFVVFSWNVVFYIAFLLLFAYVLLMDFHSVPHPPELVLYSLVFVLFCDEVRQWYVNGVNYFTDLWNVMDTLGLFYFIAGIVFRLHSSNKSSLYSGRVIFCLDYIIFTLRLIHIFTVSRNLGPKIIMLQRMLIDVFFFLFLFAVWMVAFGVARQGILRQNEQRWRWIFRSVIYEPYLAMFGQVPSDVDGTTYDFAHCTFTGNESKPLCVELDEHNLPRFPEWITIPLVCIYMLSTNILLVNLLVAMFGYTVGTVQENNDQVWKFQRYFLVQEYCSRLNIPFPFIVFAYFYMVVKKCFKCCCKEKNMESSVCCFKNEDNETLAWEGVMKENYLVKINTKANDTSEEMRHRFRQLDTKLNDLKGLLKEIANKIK", "experiment": "fluo-4 Ca2+ assay selectivity, HEK cells expressing human TRPM8", "format": "cell-based", "settings": "concentrations up to 50 μM", "excerpt": "(§1) KU-19-19 (DSMZ no. ACC 395), CAL-29 (DSMZ no. ACC 515), 647-V (DSMZ no. ACC 414), RT-4 (DSMZ no. ACC 412), and RT-112 (DSMZ no. ACC 418) bladder cancer cell lines were obtained from the Leibniz Institute DSMZ (German Collection of Microorganisms and Cell Cultures). Human TRPV3 (NM_145068, purchased from OriGene) and mouse TRPV3 (NM_001371006), rat TRPV1, mouse TRPV2, mouse TRPV4, human TRPM2, human TRPM8, and human TRPA1 were stably transfected in HEK293 cells as described before.[27] […]\n(§2) All fluorometric Ca^2+ assays were performed in HBS buffer at room temperature. […] For the primary compound screening and the generation of concentration-response analyses, a robotic liquid handling station (Freedom Evo 150; Tecan) with a built-in custom-made fluorescence plate imager was used. […] Fluorescence was excited using a 470-nm light-emitting diode, and emitted light was imaged through a 515-nm–long pass filter with a cooled Zyla 5.5 camera (Andor). Fluorescence was recorded and processed under the control of the μ-Manager 2.0 gamma software (https://micro-manager.org.[28]). After recording baseline fluorescence, compounds were dispensed into the wells via the liquid handling device. […] For further analysis, fluorescence signals were calculated for each well, corrected for background intensities and normalized to the initial signals. […]"}, "mouse TRPV4": {"target": "T2, mouse TRPV4 (Mus musculus, UniProt Q9EPK8)", "T2 construct": "expressed in transfected cells; host or cells: HEK293", "T2 sequence (Q9EPK8 whole entry)": "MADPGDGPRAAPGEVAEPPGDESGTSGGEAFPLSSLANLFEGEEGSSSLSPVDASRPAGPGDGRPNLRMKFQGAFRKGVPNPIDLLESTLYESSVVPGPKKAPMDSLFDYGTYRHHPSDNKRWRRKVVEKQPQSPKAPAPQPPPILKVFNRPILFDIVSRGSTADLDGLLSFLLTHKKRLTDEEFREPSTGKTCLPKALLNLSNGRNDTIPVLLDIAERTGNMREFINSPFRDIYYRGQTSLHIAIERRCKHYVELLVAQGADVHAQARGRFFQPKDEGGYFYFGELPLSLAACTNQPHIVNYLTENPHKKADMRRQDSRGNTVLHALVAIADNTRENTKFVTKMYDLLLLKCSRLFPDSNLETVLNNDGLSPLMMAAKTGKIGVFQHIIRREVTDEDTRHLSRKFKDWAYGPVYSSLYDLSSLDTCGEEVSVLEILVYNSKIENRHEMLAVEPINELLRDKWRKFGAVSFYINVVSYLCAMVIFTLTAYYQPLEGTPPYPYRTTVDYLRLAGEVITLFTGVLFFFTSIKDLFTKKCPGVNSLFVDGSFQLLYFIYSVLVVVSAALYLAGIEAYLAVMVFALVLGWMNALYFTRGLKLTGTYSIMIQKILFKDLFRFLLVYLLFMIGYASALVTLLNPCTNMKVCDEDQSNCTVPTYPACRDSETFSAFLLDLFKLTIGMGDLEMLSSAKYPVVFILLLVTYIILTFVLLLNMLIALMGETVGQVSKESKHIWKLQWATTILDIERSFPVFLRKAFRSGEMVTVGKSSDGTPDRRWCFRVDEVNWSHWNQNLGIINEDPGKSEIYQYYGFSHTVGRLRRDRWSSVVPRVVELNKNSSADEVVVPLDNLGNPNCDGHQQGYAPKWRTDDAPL", "experiment": "fluo-4 Ca2+ assay selectivity, HEK cells expressing mouse TRPV4", "format": "cell-based", "settings": "concentrations up to 50 μM", "excerpt": "as §1, §2"}}, "data": [{"smiles": "COC(=O)C12CN(Cc3ccccc3)CC1(C(=O)OC)CN(Cc1ccccc1)C2", "note": "(centres unmarked) [AV3-1]", "values": [{"measurement": "effect on TRPM8", "setting": "human TRPM8", "value": "no effect"}, {"measurement": "effect on TRPV4", "setting": "mouse TRPV4", "value": "no effect"}]}]}
